Measurements: PubChem BioAssay AID330 (DTP/NCI, 2004)
Several values for one entry are separate records, joined by “and”; a condition that tells them apart may be missing. Equal entries are not always repeated. Toxic doses and inconclusive results are not listed. Rule for the calls: active = survival T/C of 150% or more; inactive = T/C below 125% in these data.

Test system: P388 leukemia ip, CD2F1 mice, survival T/C
Experiment: NCI In Vivo Anticancer Drug Screen. Data for tumor model P388 Leukemia (intraperitoneal) in CD2F1 (CDF1) mice
Conditions: endpoint: median survival time, higher = longer survival
Procedure, shortened: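 Mice carrying the transplanted tumor received test compound or vehicle. Survival was recorded in each group, and the value is the treated-group measurement divided by that of the vehicle-treated control group.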

[1] = dose: 50.0 mg/kg/injection, schedule: Q01DX009 (ip), vehicle: saline with Tween-80
[2] = dose: 100.0 mg/kg/injection, schedule: Q01DX009 (ip), vehicle: saline with Tween-80
[3] = dose: 200.0 mg/kg/injection, schedule: Q01DX009 (ip), vehicle: saline with Tween-80
[4] = dose: 12.5 mg/kg/injection, schedule: Q01DX009 (ip), vehicle: other
[5] = dose: 25.0 mg/kg/injection, schedule: Q01DX009 (ip), vehicle: other
[6] = dose: 50.0 mg/kg/injection, schedule: Q01DX009 (ip), vehicle: other
[7] = dose: 100.0 mg/kg/injection, schedule: Q01DX009 (ip), vehicle: other
[8] = dose: 12.5 mg/kg/injection, schedule: Q01DX009 (ip), vehicle: saline with Tween-80
[9] = dose: 25.0 mg/kg/injection, schedule: Q01DX009 (ip), vehicle: saline with Tween-80
[10] = dose: 50.0 mg/kg/injection, schedule: Q01DX009 (ip), vehicle: Klucel (hydroxypropylcellulose) (HPC)
[11] = dose: 100.0 mg/kg/injection, schedule: Q01DX009 (ip), vehicle: Klucel (hydroxypropylcellulose) (HPC)
[12] = dose: 200.0 mg/kg/injection, schedule: Q01DX009 (ip), vehicle: Klucel (hydroxypropylcellulose) (HPC)
[13] = dose: 50.0 mg/kg/injection, schedule: Q01DX009 (ip), vehicle: saline
[14] = dose: 100.0 mg/kg/injection, schedule: Q01DX009 (ip), vehicle: saline
[15] = dose: 200.0 mg/kg/injection, schedule: Q01DX009 (ip), vehicle: saline
[16] = dose: 60.0 mg/kg/injection, schedule: Q01DX005 (ip), vehicle: saline with Tween-80
[17] = dose: 120.0 mg/kg/injection, schedule: Q01DX005 (ip), vehicle: saline with Tween-80
[18] = dose: 240.0 mg/kg/injection, schedule: Q01DX005 (ip), vehicle: saline with Tween-80
[19] = dose: 50.0 mg/kg/injection, schedule: Q01DX005 (ip), vehicle: saline with Tween-80
[20] = dose: 100.0 mg/kg/injection, schedule: Q01DX005 (ip), vehicle: saline with Tween-80
[21] = dose: 200.0 mg/kg/injection, schedule: Q01DX005 (ip), vehicle: saline with Tween-80

Measured: T/C

C[N+](C)(C)CC(=O)O
inactive: dose: 10.0 mg/kg/injection, schedule: Q01DX005 (ip), vehicle: saline 104 % of control | dose: 20.0 mg/kg/injection, schedule: Q01DX005 (ip), vehicle: saline 99 % of control | dose: 31.25 mg/kg/injection, schedule: Q01DX005 (ip), vehicle: saline 100 % of control | dose: 40.0 mg/kg/injection, schedule: Q01DX005 (ip), vehicle: saline 98 % of control | dose: 62.5 mg/kg/injection, schedule: Q01DX005 (ip), vehicle: saline 105 % of control | dose: 125.0 mg/kg/injection, schedule: Q01DX005 (ip), vehicle: saline 91 % of control | dose: 250.0 mg/kg/injection, schedule: Q01DX005 (ip), vehicle: saline 87 % of control

C=CCC1(CCC)C(=O)NC(=S)NC1=O
inactive: [1] 110 % of control | [2] 117 % of control | [3] 115 % of control

CC(=O)Nc1nncs1
inactive: dose: 100.0 mg/kg/injection, schedule: Q04DX003 (ip), vehicle: saline sonified 109 % of control | dose: 200.0 mg/kg/injection, schedule: Q04DX003 (ip), vehicle: saline sonified 90 % of control | dose: 400.0 mg/kg/injection, schedule: Q04DX003 (ip), vehicle: saline sonified 118 % of control

CSc1cccc(NC(=O)Oc2c(Cl)cccc2Cl)c1
inactive: dose: 50.0 mg/kg/injection, schedule: Q01DX009 (ip), vehicle: gum acacia 113 % of control | dose: 100.0 mg/kg/injection, schedule: Q01DX009 (ip), vehicle: gum acacia 111 % of control

N#CCc1[nH]nc2ncnc(N)c12
inactive: dose: 6.25 mg/kg/injection, schedule: Q01DX009 (ip), vehicle: other 102 % of control | [4] 103 % of control | [5] 97 % of control | [6] 97 % of control | [7] 105 % of control

Nc1ncc([N+](=O)[O-])c(Cl)n1
inactive: [8] 105 % of control | [9] 105 % of control | [1] 105 % of control

COc1ccc(/C=N/N2C(=O)c3ccccc3C2=O)c(OC)c1
inactive: dose: 50.0 mg/kg/injection, schedule: Q01DX005 (ip), vehicle: Klucel (hydroxypropylcellulose) (HPC) 99 % of control | dose: 100.0 mg/kg/injection, schedule: Q01DX005 (ip), vehicle: Klucel (hydroxypropylcellulose) (HPC) 98 % of control | dose: 200.0 mg/kg/injection, schedule: Q01DX005 (ip), vehicle: Klucel (hydroxypropylcellulose) (HPC) 96 % of control

COC(=O)CC1(C(=O)OC)C2=C(CCSC2)N2CCCC21 (stereo not drawn)
inactive: dose: 3.75 mg/kg/injection, schedule: Q01DX009 (ip), vehicle: Klucel (hydroxypropylcellulose) (HPC) 97 % of control | dose: 7.5 mg/kg/injection, schedule: Q01DX009 (ip), vehicle: Klucel (hydroxypropylcellulose) (HPC) 97 % of control | dose: 15.0 mg/kg/injection, schedule: Q01DX009 (ip), vehicle: Klucel (hydroxypropylcellulose) (HPC) 100 % of control | dose: 30.0 mg/kg/injection, schedule: Q01DX009 (ip), vehicle: Klucel (hydroxypropylcellulose) (HPC) 100 % of control

N#CC1C(=O)NC(=O)C(C#N)C1c1ccc(Cl)cc1Cl (stereo not drawn)
inactive: [10] 96 % of control | [11] 105 % of control | [12] 107 % of control

CCOC(=O)NN(C(=O)OCC)/C(C(=O)OCC)=C(/C)N
inactive: [13] 97 % of control and 102 % of control and 93 % of control | [14] 97 % of control and 104 % of control | [15] 98 % of control and 89 % of control

Cc1cc(C)nc(/C=C/c2ccccc2)c1
inactive: [16] 104 % of control | [17] 105 % of control | [18] 106 % of control

Cc1nn(-c2ccccc2)c2c1C(c1ccc(Cl)cc1)C(C#N)=C(N)O2 (stereo not drawn)
inactive: [10] 94 % of control | [11] 96 % of control

NC(=S)N/N=C\c1nccc2ccccc12
inactive: dose: 6.25 mg/kg/injection, schedule: Q01DX009 (ip), vehicle: saline 90 % of control | dose: 12.5 mg/kg/injection, schedule: Q01DX009 (ip), vehicle: saline 99 % of control | dose: 50.0 mg/kg/injection, schedule: Q01DX009 (ip), vehicle: suspension in saline 94 % of control

Cc1cc(C2(c3cc(C)c(O)c(C)c3)OC(=O)c3ccccc32)cc(C)c1O
inactive: [10] 105 % of control | [11] 99 % of control | [12] 103 % of control

CC1(C)CC(=O)C=C(NCc2ccccc2)C1
inactive: [9] 104 % of control | [1] 104 % of control and 90 % of control | [2] 101 % of control and 96 % of control | [3] 99 % of control and 91 % of control

O/N=C(/c1ccccc1)n1nnc2ccccc21
inactive: [16] 118 % of control | [17] 106 % of control | [18] 105 % of control

CCOC(=O)c1ccc(N=Cc2cccs2)cc1
inactive: [13] 88 % of control | [14] 92 % of control | [15] 102 % of control

COCc1onc(-c2ccc(OC)cc2)c1-c1ccc(OC)cc1
inactive: [16] 105 % of control | [17] 100 % of control | [18] 100 % of control

CN(C)C(=S)SCNC(=S)NCSC(=S)N(C)C
inactive: dose: 6.25 mg/kg/injection, schedule: Q01DX009 (ip), vehicle: saline with Tween-80 104 % of control | [8] 110 % of control and 117 % of control | [9] 116 % of control and 121 % of control

COc1cc2c(cc1C(CC(=O)O)c1ccc3c(c1)OCO3)OCO2 (stereo not drawn)
inactive: [19] 103 % of control | [20] 105 % of control | [21] 103 % of control

CCOC(=O)COC1=NN(c2cccc(C(F)(F)F)c2)CC1
inactive: dose: 100.0 mg/kg/injection, schedule: Q04DX003 (ip), vehicle: Klucel (hydroxypropylcellulose) (HPC) 110 % of control | dose: 200.0 mg/kg/injection, schedule: Q04DX003 (ip), vehicle: Klucel (hydroxypropylcellulose) (HPC) 110 % of control | dose: 400.0 mg/kg/injection, schedule: Q04DX003 (ip), vehicle: Klucel (hydroxypropylcellulose) (HPC) 109 % of control

CCCCCN(CCC)CCCCCCCCCN1CCCc2cc(OC)ccc21
inactive: dose: 50.0 mg/kg/injection, schedule: Q01DX005 (ip), vehicle: saline + Tween-80 + alcohol 105 % of control | dose: 100.0 mg/kg/injection, schedule: Q01DX005 (ip), vehicle: saline + Tween-80 + alcohol 110 % of control

CCOc1ccccc1NC(=O)CC(=O)N1N=C(c2ccccc2)C(N=Nc2ccc(S(N)(=O)=O)cc2)C1=O (stereo not drawn)
inactive: [19] 110 % of control | [20] 102 % of control | [21] 102 % of control

NC(=S)COc1ccccc1
inactive: [1] 105 % of control | [2] 101 % of control | [3] 105 % of control

O=[N+]([O-])c1cc2c(cc1C=Nc1ccc(O)cc1)OCO2
inactive: [4] 113 % of control | [5] 117 % of control | [6] 113 % of control | [7] 96 % of control | dose: 200.0 mg/kg/injection, schedule: Q01DX009 (ip), vehicle: other 110 % of control | dose: 400.0 mg/kg/injection, schedule: Q01DX009 (ip), vehicle: other 113 % of control
